Results from the NIST ThermoML archive (doi:10.1021/je100610v).

Experiment: molar heat capacity at constant pressure; xn = mol fraction of the nth substance listed
Details: 101 kPa, Liquid

ClCCCCCCCl [1,6-dichlorohexane] + CCCCCCC
molar heat capacity at constant pressure [J/K/mol]
Details | x1 = 0.1033 | x1 = 0.2005 | x1 = 0.3004 | x1 = 0.397 | x1 = 0.5025 | x1 = 0.5978 | x1 = 0.7012 | x1 = 0.7975 | x1 = 0.8993 | x1 = 1
293.15 K | 224.18 | 225.58 | 226.93 | 228.73 | 230.53 | 232.22 | 233.79 | 235.58 | 237.46 | 239.21
294.15 K | 224.47 | 225.71 | 227.22 | 229.08 | 230.89 | 232.55 | 234 | 235.86 | 237.73 | 239.5
295.15 K | 224.85 | 226.27 | 227.61 | 229.51 | 231.34 | 232.94 | 234.33 | 236.23 | 238.1 | 239.69
296.15 K | 225.28 | 226.73 | 227.98 | 229.89 | 231.84 | 233.25 | 234.73 | 236.51 | 238.39 | 240.02
297.15 K | 225.7 | 227.04 | 228.31 | 230.27 | 231.98 | 233.48 | 235.05 | 236.81 | 238.57 | 240.35
298.15 K | 226.02 | 227.35 | 228.65 | 230.41 | 232.13 | 233.77 | 235.36 | 237.1 | 238.92 | 240.64
299.15 K | 226.42 | 227.84 | 228.96 | 230.75 | 232.24 | 234 | 235.65 | 237.33 | 239.06 | 240.85
300.15 K | 226.82 | 228.08 | 229.21 | 231.06 | 232.49 | 234.22 | 236.05 | 237.68 | 239.39 | 241.15
301.15 K | 227.16 | 228.49 | 229.61 | 231.57 | 232.94 | 234.6 | 236.34 | 238.04 | 239.79 | 241.46
302.15 K | 227.48 | 228.83 | 230 | 231.8 | 233.35 | 234.96 | 236.63 | 238.29 | 240.08 | 241.8
303.15 K | 227.86 | 229.13 | 230.36 | 232.08 | 233.73 | 235.31 | 236.93 | 238.61 | 240.37 | 242.06
304.15 K | 228.19 | 229.46 | 230.7 | 232.56 | 234.04 | 235.48 | 237.2 | 238.86 | 240.64 | 242.34
305.15 K | 228.57 | 229.83 | 230.91 | 232.74 | 234.33 | 235.88 | 237.53 | 239.21 | 240.92 | 242.62
306.15 K | 228.88 | 230.1 | 231.36 | 233.13 | 234.4 | 236.03 | 237.84 | 239.44 | 241.2 | 242.83
307.15 K | 229.3 | 230.51 | 231.65 | 233.51 | 235.07 | 236.5 | 238.18 | 239.76 | 241.48 | 243.21
308.15 K | 229.71 | 230.91 | 232.08 | 233.76 | 235.33 | 236.85 | 238.49 | 240.12 | 241.83 | 243.49
309.15 K | 230.05 | 231.19 | 232.35 | 234.03 | 235.45 | 237.17 | 238.74 | 240.37 | 242.06 | 243.73
310.15 K | 230.4 | 231.55 | 232.73 | 234.35 | 235.77 | 237.52 | 239.07 | 240.64 | 242.36 | 244
311.15 K | 230.86 | 231.97 | 233.11 | 234.88 | 236.41 | 237.89 | 239.43 | 241.08 | 242.73 | 244.35
312.15 K | 231.16 | 232.33 | 233.45 | 235.01 | 236.75 | 238.16 | 239.72 | 241.32 | 243.02 | 244.68
313.15 K | 231.55 | 232.68 | 233.79 | 235.43 | 236.93 | 238.39 | 240.06 | 241.64 | 243.28 | 244.91
